What was measured:
CDK2/CycE = molecular target: T1, CDK2/CycE (Homo sapiens, UniProt P24941); test: CDK2/CycE kinase assay (TR-FRET); format: biochemical; details: avg, read-out: CDK2 avg (IC50 [mol/l])
T1 construct: GST; purchased ProQinase GmbH (Freiburg, Germany); host or cells: insect cells (Sf9)
Method in brief: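 GST-tagged human CDK2 and CycE from Sf9 cells, preincubated 15 min with compound, then 25 min at 22° C. with 10 μM ATP and 0.75 μM biotinylated Rb-derived peptide (final). Phospho-substrate read by TR-FRET (anti-pRB pSer807/pSer811, Eu anti-mouse IgG, streptavidin-XL665), 665/620 nm ratio, normalised to no-inhibitor and no-enzyme controls.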

[1] = molecular target: T2, catalytic domain of human Bub1 (amino acids 704-1085) (Homo sapiens, UniProt O43683); test: Bub1 kinase assay (TR-FRET); format: biochemical; details: 10 μM ATP, avg, read-out: Bub1 avg (IC50 [mol/l])
T2 construct: catalytic domain of human Bub1 (amino acids 704-1085); His6 (N); made in house; host or cells: insect cells (Hi5)
T2 sequence (O43683 704-1085): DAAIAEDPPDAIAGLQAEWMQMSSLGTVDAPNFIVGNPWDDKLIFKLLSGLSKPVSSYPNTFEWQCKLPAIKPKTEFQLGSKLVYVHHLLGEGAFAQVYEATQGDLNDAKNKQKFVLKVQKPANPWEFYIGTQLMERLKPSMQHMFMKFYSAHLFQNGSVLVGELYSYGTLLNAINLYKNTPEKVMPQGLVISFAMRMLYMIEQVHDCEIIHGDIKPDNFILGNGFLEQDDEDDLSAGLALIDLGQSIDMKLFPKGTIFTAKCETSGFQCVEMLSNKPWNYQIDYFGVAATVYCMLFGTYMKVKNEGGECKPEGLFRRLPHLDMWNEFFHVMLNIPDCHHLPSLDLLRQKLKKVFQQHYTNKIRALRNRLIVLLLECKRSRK
Method in brief: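 Readout is the 665/620 nm TR-FRET ratio from anti-phosphoserine antibody, Eu-labelled anti-mouse IgG and streptavidin-XL665, scaled between no-enzyme and uninhibited controls. Reaction: 1 μM biotinylated peptide, 10 μM ATP, 60 min, 22 °C, after 15 min compound preincubation with His6-Bub1 (704-1085, insect-expressed, ~200 ng/ml).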

Compound | IC50 (CDK2/CycE) [µM] | IC50 [1] [µM]
Cc1nsc(Nc2cnc(C(F)(F)F)cn2)c1C(=O)Nc1ccc(OC2CCCN(CC(F)(F)F)C2)nc1 (stereo not drawn) [Example 331, 3-methyl-N-(6-{[1-(2,2,2-trifluoroethyl)piperidin-3-yl]oxy}pyridin-3-yl)-5-{[5-(trifluoromethyl)pyrazin-2-yl]amino}-1,2-thiazole-4-carboxamide] | ≥ 20 | ≥ 20
Cc1nsc(Nc2cnc(C(F)(F)F)cn2)c1C(=O)Nc1ccc(OC2CCCN(CCC(F)(F)F)C2)nc1 (stereo not drawn) [Example 332, 3-methyl-5-{[5-(trifluoromethyl)pyrazin-2-yl]amino}-N-(6-{[1-(3,3,3-trifluoropropyl)piperidin-3-yl]oxy}pyridin-3-yl)-1,2-thiazole-4-carboxamide] | ≥ 20 | ≥ 20
Cc1nsc(Nc2cnc(C(F)(F)F)cn2)c1C(=O)Nc1ccc(OC2CCCN(C(CF)CF)C2)nc1 (stereo not drawn) [Example 333, N-(6-{[1-(1,3-difluoropropan-2-yl)piperidin-3-yl]oxy}pyridin-3-yl)-3-methyl-5-{[5-(trifluoromethyl)pyrazin-2-yl]amino}-1,2-thiazole-4-carboxamide] | ≥ 20 | ≥ 20
Cc1nsc(Nc2cnc(C(F)(F)F)cn2)c1C(=O)Nc1ccc(F)c(OCC2CCCN(CC(F)F)C2)c1 (stereo not drawn) [Example 334, N-(3-{[1-(2,2-difluoroethyl)piperidin-3-yl]methoxy}-4-fluorophenyl)-3-methyl-5-{[5-(trifluoromethyl)pyrazin-2-yl]amino}-1,2-thiazole-4-carboxamide] | ≥ 20 | ≥ 20
Cc1nsc(Nc2cnc(C(F)(F)F)cn2)c1C(=O)Nc1ccc(F)c(OCC2CCCN(CCF)C2)c1 (stereo not drawn) [Example 336, N-(4-fluoro-3-{[1-(2-fluoroethyl)piperidin-3-yl]methoxy}phenyl)-3-methyl-5-{[5-(trifluoromethyl)pyrazin-2-yl]amino}-1,2-thiazole-4-carboxamide] | ≥ 20 | ≥ 20
Cc1nsc(Nc2cnc(C(F)(F)F)cn2)c1C(=O)Nc1ccc(F)c(OCC2CCCN(CC(F)(F)F)C2)c1 (stereo not drawn) [Example 337, N-(4-fluoro-3-{[1-(2,2,2-trifluoroethyl)piperidin-3-yl]methoxy}phenyl)-3-methyl-5-{[5-(trifluoromethyl)pyrazin-2-yl]amino}-1,2-thiazole-4-carboxamide] | ≥ 20 | ≥ 20
Cc1nsc(Nc2cnc(C(F)(F)F)cn2)c1C(=O)Nc1ccc(F)c(OCC2CCCN(CCC(F)(F)F)C2)c1 (stereo not drawn) [Example 338, N-(4-fluoro-3-{[1-(3,3,3-trifluoropropyl)piperidin-3-yl]methoxy}phenyl)-3-methyl-5-{[5-(trifluoromethyl)pyrazin-2-yl]amino}-1,2-thiazole-4-carboxamide] | ≥ 20 | ≥ 20
Cc1nsc(Nc2cnc(C(F)(F)F)cn2)c1C(=O)Nc1ccc(F)c(OC[C@@H]2CCN(CC(F)(F)F)C2)c1 [Example 339, N-(4-fluoro-3-{[(3R)-1-(2,2,2-trifluoroethyl)pyrrolidin-3-yl]methoxy}phenyl)-3-methyl-5-{[5-(trifluoromethyl)pyrazin-2-yl]amino}-1,2-thiazole-4-carboxamide] | > 20 | > 20
Cc1nsc(Nc2cnc(C(F)(F)F)cn2)c1C(=O)Nc1ccc(F)c(OC[C@@H]2CCN(CCC(F)(F)F)C2)c1 [Example 340, N-(4-fluoro-3-{[(3R)-1-(3,3,3-trifluoropropyl)pyrrolidin-3-yl]methoxy}phenyl)-3-methyl-5-{[5-(trifluoromethyl)pyrazin-2-yl]amino}-1,2-thiazole-4-carboxamide] | > 20 | > 20
Cc1nsc(Nc2cnc(C(F)(F)F)cn2)c1C(=O)Nc1ccc(F)c(OC[C@@H]2CCCN(CC(F)F)C2)c1 [Example 341, N-(3-{[(3R)-1-(2,2-difluoroethyl)piperidin-3-yl]methoxy}-4-fluorophenyl)-3-methyl-5-{[5-(trifluoromethyl)pyrazin-2-yl]amino}-1,2-thiazole-4-carboxamide] | > 20 | > 20
Cc1nsc(Nc2cnc(C(F)(F)F)cn2)c1C(=O)Nc1ccc(F)c(OC[C@@H]2CCCN(CC(F)(F)F)C2)c1 [Example 342, N-(4-fluoro-3-{[(3R)-1-(2,2,2-trifluoroethyl)piperidin-3-yl]methoxy}phenyl)-3-methyl-5-{[5-(trifluoromethyl)pyrazin-2-yl]amino}-1,2-thiazole-4-carboxamide] | > 20 | > 20
Cc1nsc(Nc2cncc(C(F)(F)F)n2)c1C(=O)Nc1ccc(F)c(OC2CCN(CCC(F)(F)F)CC2)c1 [Example 343, N-(4-fluoro-3-{[1-(3,3,3-trifluoropropyl)piperidin-4-yl]oxy}phenyl)-3-methyl-5-{[6-(trifluoromethyl)pyrazin-2-yl]amino}-1,2-thiazole-4-carboxamide] | ≥ 20 | ≥ 20
Cc1nsc(Nc2cnc(C(F)(F)F)cn2)c1C(=O)Nc1ccc(OCC2CCN(CCF)CC2)nc1 [Example 344, N-(6-{[1-(2-fluoroethyl)piperidin-4-yl]methoxy}pyridin-3-yl)-3-methyl-5-{[5-(trifluoromethyl)pyrazin-2-yl]amino}-1,2-thiazole-4-carboxamide] | ≥ 20 | ≥ 20
Cc1nsc(Nc2cnc(C(F)(F)F)cn2)c1C(=O)Nc1ccc(OCC2CCN(CC(F)F)CC2)nc1 [Example 345, N-(6-{[1-(2,2-difluoroethyl)piperidin-4-yl]methoxy}pyridin-3-yl)-3-methyl-5-{[5-(trifluoromethyl)pyrazin-2-yl]amino}-1,2-thiazole-4-carboxamide] | ≥ 20 | ≥ 20
Cc1nsc(Nc2cnc(C(F)(F)F)cn2)c1C(=O)Nc1ccc(OCC2CCN(CC(F)(F)F)CC2)nc1 [Example 346, 3-methyl-N-(6-{[1-(2,2,2-trifluoroethyl)piperidin-4-yl]methoxy}pyridin-3-yl)-5-{[5-(trifluoromethyl)pyrazin-2-yl]amino}-1,2-thiazole-4-carboxamide] | ≥ 20 | ≥ 20
Cc1nsc(Nc2cnc(C(F)(F)F)cn2)c1C(=O)Nc1ccc(OCC2CCN(CCC(F)(F)F)CC2)nc1 [Example 347, 3-methyl-5-{[5-(trifluoromethyl)pyrazin-2-yl]amino}-N-(6-{[1-(3,3,3-trifluoropropyl)piperidin-4-yl]methoxy}pyridin-3-yl)-1,2-thiazole-4-carboxamide] | ≥ 20 | ≥ 20
Cc1nsc(Nc2cnc(C(F)(F)F)cn2)c1C(=O)Nc1ccc(OCCN(C)CCC(F)(F)F)nc1 [Example 351, 3-methyl-N-(6-{2-[methyl(3,3,3-trifluoropropyl)amino]ethoxy}pyridin-3-yl)-5-{[5-(trifluoromethyl)pyrazin-2-yl]amino}-1,2-thiazole-4-carboxamide] | ≥ 20 | ≥ 20
Cc1nsc(Nc2cnc(C(F)(F)F)cn2)c1C(=O)Nc1ccc(OCCCN(C)CCF)nc1 [Example 352, N-(6-{3-[(2-fluoroethyl)(methyl)amino]propoxy}pyridin-3-yl)-3-methyl-5-{[5-(trifluoromethyl)pyrazin-2-yl]amino}-1,2-thiazole-4-carboxamide] | ≥ 20 | 19
Cc1nsc(Nc2cnc(C(F)(F)F)cn2)c1C(=O)Nc1ccc(CCC2CCN(CC(F)F)CC2)nc1 [Example 356, N-(6-{2-[1-(2,2-difluoroethyl)piperidin-4-yl]ethyl}pyridin-3-yl)-3-methyl-5-{[5-(trifluoromethyl)pyrazin-2-yl]amino}-1,2-thiazole-4-carboxamide] | > 20 | > 20
Cc1nsc(Nc2cnc(C(F)(F)F)cn2)c1C(=O)Nc1ccc(C2CCN(CC(F)F)CC2)nc1 [Example 357, N-{6-[1-(2,2-difluoroethyl)piperidin-4 yl]pyridin-3-yl}-3-methyl-5-{[5-(trifluoromethyl)pyrazin-2-yl]amino}-1,2-thiazole-4-carboxamide] | > 20 | > 20
Cc1nsc(Nc2cnc(C(F)(F)F)cn2)c1C(=O)Nc1ccc(C2CCN(CC(F)(F)F)CC2)nc1 [Example 358, 3-methyl-N-{6-[1-(2,2,2-trifluoroethyl)piperidin-4-yl]pyridin-3-yl}-5-{[5-(trifluoromethyl)pyrazin-2-yl]amino}-1,2-thiazole-4-carboxamide] | > 20 | > 20
Cc1nsc(Nc2cnc(C(F)(F)F)cn2)c1C(=O)Nc1ccc(N2CCN(CC(F)F)CC2)nc1 [Example 359, N-{6-[4-(2,2-difluoroethyl)piperazin-1-yl]pyridin-3-yl}-3-methyl-5-{[5-(trifluoromethyl)pyrazin-2-yl]amino}-1,2-thiazole-4-carboxamide] | > 20 | > 20
Cc1nsc(Nc2cnc(C(F)(F)F)cn2)c1C(=O)Nc1ccc(N2CCN(CC(F)(F)F)CC2)nc1 [Example 360, 3-methyl-N-{6-[4-(2,2,2-trifluoroethyl)piperazin-1-yl]pyridin-3-yl}-5-{[5-(trifluoromethyl)pyrazin-2-yl]amino}-1,2-thiazole-4-carboxamide] | > 20 | > 20
Cc1nsc(Nc2cnc(C(F)(F)F)cn2)c1C(=O)Nc1ccc(N2CCN(CCC(F)(F)F)CC2)nc1 [Example 361, 3-methyl-5-{[5-(trifluoromethyl)pyrazin-2-yl]amino}-N-{6-[4-(3,3,3-trifluoropropyl)piperazin-1-yl]pyridin-3-yl}-1,2-thiazole-4-carboxamide] | > 20 | > 20
